Measured values as given in US20210047398A1, “ASPROSIN, A FAST-INDUCED GLUCOGENIC PROTEIN HORMONE” (Baylor College of Medicine, priority 2016, published 2021).
Values belong to the molecule of their own block, whether it stands above or below them.

Columns and labels:
[1] = system: AgRP neurons; experiment: Whole-cell patch clamp recordings on AgRP neurons; format: cell-based, mice; conditions: for effect of pre-treating on asprosin-mediated AgRP neuron activation (firing frequency and resting membrane potential): 100 μM NKY80, 50 μM suramin, 20 μM NF449, 50 μM PTX, 1 μM PKI, 100 μM [D-Lys3]-GHRP-6
Protocol: Electrophysiology—Whole-cell patch clamp recordings were performed on identified AgRP neurons or POMC neurons in the brain slices containing the arcuate nucleus of the hypothalamus (ARH). In particular, to identify AgRP neurons, the inventors crossed Rosa26-tdTOMATO allele onto the regular AgRP-Cre mice (Tong et al., 2008) to generate AgRP-Cre/Rosa26-tdTOMATO mice, which express TOMATO selectively in AgRP/NPY neurons. In some studies, the inventors crossed NPY-GFP mice (Pinto et al., 2004) with NPS mice to generate NPY-GFP mice with or without the NPS mutation, and GFP-labelled neurons in the arcuate nucleus were recorded. In order to record POMC neurons, the inventors crossed Rosa26-tdTOMATO allele onto the POMC-CreERT2 mice (Berglund et al., 2013) to generate POMC-CreERT2/Rosa26-tdTOMATO mice, which express TOMATO selectively in mature POMC neurons upon tamoxifen induction (0.2 mg/g, i.p. 6 weeks of age). In some studies, the inventors also crossed the AgRP-DTR allele onto POMC-GFP mice, and these mice received DT or saline injections (described above) to generate mice with or without AgRP neurons ablated.
Six to twelve-week old mice were deeply anesthetized with isoflurane and transcardially perfused with a modified ice-cold sucrose-based cutting solution (pH 7.3) containing 10 mM NaCl, 25 mM NaHCO3, 195 mM Sucrose, 5 mM Glucose, 2.5 mM KCl, 1.25 mM NaH2PO4, 2 mM Na-Pyruvate, 0.5 mM CaCl2, and 7 mM MgCl2, bubbled continuously with 95% O2 and 5% CO2 (Ren et al., 2012). The mice were then decapitated, and the entire brain was removed and immediately submerged in the cutting solution. Slices (250 μm) were cut with a Microm HM 650V vibratome (Thermo Scientific). Three brain slices containing the arcuate nucleus were obtained for each animal (Bregma −2.06 mm to −1.46 mm; Interaural 1.74 mm to 2.34 mm), and recordings were made at levels throughout this brain region. The slices were recovered for 1 h at 34° C. and then maintained at room temperature in artificial cerebrospinal fluid (aCSF, pH 7.3) containing 126 mM NaCl, 2.5 mM KCl, 2.4 mM CaCl2, 1.2 mM NaH2PO4, 1.2 mM MgCl2, 11.1 mM glucose, and 21.4 mM NaHCO3) saturated with 95% O2 and 5% CO2 before recording.
Slices were transferred to a recording chamber and allowed to equilibrate for at least 10 min before recording. The slices were superfused at 34° C. in oxygenated aCSF at a flow rate of 1.8-2 ml/min. GFP or TOMATO-labeled neurons in the ARH were visualized using epifluorescence and IR-DIC imaging on an upright microscope (Eclipse FN-1, Nikon) equipped with a moveable stage (MP-285, Sutter Instrument). Patch pipettes with resistances of 3-5 MΩ were filled with intracellular solution (pH 7.3) containing 128 mM K-Gluconate, 10 mM KCl, 10 mM HEPES, 0.1 mM EGTA, 2 mM MgCl2, 0.05 mM Na-GTP and 0.05 mM Mg-ATP. Recordings were made using a MultiClamp 700B amplifier (Axon Instrument), sampled using Digidata 1440A and analyzed offline with pClamp 10.3 software (Axon Instruments). Series resistance was monitored during the recording, and the values were generally <10 MΩ and were not compensated. The liquid junction potential was +12.5 mV, and was corrected after the experiment. Data were excluded if the series resistance increased dramatically during the experiment or without overshoot for action potential. Currents were amplified, filtered at 1 kHz, and digitized at 20 kHz. Current clamp was engaged to test neural firing frequency and resting membrane potential (RM) at the baseline and puff delivered recombinant Asprosin (500 ms at various concentrations indicated in the figures). For the asprosin antibody pre-incubation experiment, asprosin and anti-asprosin mAB or IgG were gently mixed at a 1:100 ratio, and then kept on ice for one hour before recording. After AgRP or POMC neuron response to asprosin alone was confirmed, the mixture of recombinant asprosin and anti-asprosin mAB or IgG was perfused to treat the AgRP or POMC neurons for 4 minutes. […]

[2] = system: mouse primary hepatocytes
Protocol: Cell Culture. Primary mouse hepatocytes were isolated from 8- to 12-week-old WT mice using standard methodology. […] The cells were treated with 50 nM recombinant asprosin or GFP for 10 minutes for cAMP and PKA assays and for 2 hours for the in vitro glucose production assay. Cells were pretreated with various inhibitors for 1 hour prior to treatment with asprosin, GFP, Glucagon or Epinephrine. cAMP was measured from cell lysates using the cAMP direct immunoassay kit from Cell Biolabs. PKA activity was measured from cell lysates using the PKA kinase activity kit from Enzo Lifesciences, Inc. Media glucose content was measured using the Glucose Colorimetric Assay Kit from Biovision. Results were normalized to protein content.

[3] = SPECT scans and gamma counting after intravenous I125-asprosin; format: in vivo, mice; conditions: 15 minutes after intravenous injection of 150 μCi
Protocol: FIGS. 22A-22E: Asprosin traffics to the liver in vivo and binds the hepatocyte surface with high affinity in a saturable and competitive manner. (FIG. 22A) SPECT scans were performed 15 minutes after intravenous injection with 150 μCi I125-asprosin, boiled I125-asprosin, or free I125 in live, anesthetized mice previously injected with bismuth as a hepatic contrast agent. 3 representative images are shown in axial and coronal planes. (FIG. 22B) Liver asprosin accumulation was measured as liver photon intensity from mice in (FIG. 22A). (FIG. 22C) Tissue radioactivity (normalized to tissue weight) was measured using a γ-counter after sacrificing mice from (FIG. 22A), 45 minutes following injection (n=4 mice). (FIG. 22D) Sandwich ELISA was used to measure plasma His tag (recombinant asprosin contains an N-terminal His tag) in WT mice before injection and 15, 30, 60 and 120 minutes after injection with 30 μg recombinant asprosin. The time taken for peak signal to fall to half-maximal level is indicated by the arrow. […] Specific binding (shown in red) was calculated as the difference between the two curves. Data are represented as the mean±SEM.
Recombinant asprosin was labeled with iodine-125 (I^125) and injected intravenously in mice, followed by single-photon emission computerized tomography (SPECT) scans to identify sites of accumulation. […]

[4] = Food intake, energy expenditure and body composition after asprosin gain-of-function; format: in vivo, mice; conditions: single subcutaneous dose, C57Bl/6 mice, vs GFP
Protocol: Mouse food intake and energy expenditure—Food intake and energy expenditure were measured using the CLAMS System (Comprehensive Lab Animal Monitoring System, Columbus Instruments). Animals were acclimatized in the recording chambers for 48-72 hours, and measurements were taken subsequently for 24 hours during the light cycle and dark cycle. Mice received food and water ad libitum, or after an overnight fast where indicated. Oxygen consumption and food intake were recorded.
As previously described (Yan et al., 2016), male mice were anesthetized with inhaled isoflurane and stainless steel cannulas (Plastics One) were inserted into the lateral ventricles (0.34 mm caudal and 1 mm lateral from bregma; depth, 2.3 mm). […] These mice received 10 ng GFP ([…]) twice a day for 3 continuous days, and 10 ng asprosin (in […]) the last day. The BioDAQ food intake monitoring system (Research Diets, Inc) was used to monitor the food intake, and the food intake from the last GFP injection and asprosin were compared.
Mouse body composition—Body composition was analyzed using an ECHO-MRI system (Echo medical systems, Texas) or DEXA scans where indicated. Lean mass, fat mass, and overall body weight were calculated using the manufacturer-provided software.

[5] = Asprosin plasma half-life (biotinylated asprosin sandwich ELISA); format: in vivo; conditions: mammalian cell expressed asprosin, subcutaneous, mice, FIG. 50B
Protocol: Asprosin Plasma Half-life—Asprosin expressed in HEK293 was labeled with biotin using a EZ-Link Sulfo-NHS-Biotin kit (Thermo Scientific), and excess biotin was removed using a Zeba Spin desalting column (Thermo Scientific). Final protein concentration was estimated using a BCA assay (Thermo Scientific). Approximately 30 ug/mouse of labeled asprosin was injected subcutaneously into C57Bl/6 mice. Blood was drawn before injection (baseline), and 30, 60, 120, and 360 minutes after injection, as well as after 24 and 48 hours. Biotinylated asprosin was detected using a custom designed sandwich ELISA. A plate was coated with the anti-asprosin monoclonal antibody (capture antibody), total plasma asprosin was bound, and only biotinylated asprosin was detected using Streptavidin-HRP.

Molecule: O=C(Nc1cc(C(=O)Nc2ccc(S(=O)(=O)[O-])cc2S(=O)(=O)[O-])cc(C(=O)Nc2ccc(S(=O)(=O)[O-])cc2S(=O)(=O)[O-])c1)Nc1cc(C(=O)Nc2ccc(S(=O)(=O)[O-])cc2S(=O)(=O)[O-])cc(C(=O)Nc2ccc(S(=O)(=O)[O-])cc2S(=O)(=O)[O-])c1.[Na+].[Na+].[Na+].[Na+].[Na+].[Na+].[Na+].[Na+] [NF449, reference compound]
- effect of pre-treating on asprosin-mediated AgRP neuron activation (firing frequency and resting membrane potential) [1]: completely prevented

Molecule: Nc1ncc2c(n1)CC(c1ccco1)CC2=O (stereo not drawn) [NKY80, reference compound]
- effect of pre-treating on asprosin-mediated AgRP neuron activation (firing frequency and resting membrane potential) [1]: completely prevented

- effect on asprosin-mediated hepatocyte PKA activation [2]: blocked
Molecule: Cc1ccc(C(=O)Nc2ccc(S(=O)(=O)O)c3cc(S(=O)(=O)O)cc(S(=O)(=O)O)c23)cc1NC(=O)c1cccc(NC(=O)Nc2cccc(C(=O)Nc3cc(C(=O)Nc4ccc(S(=O)(=O)O)c5cc(S(=O)(=O)O)cc(S(=O)(=O)O)c45)ccc3C)c2)c1 [suramin, reference compound]
- effect of pre-treating on asprosin-mediated AgRP neuron activation (firing frequency and resting membrane potential) [1]: completely prevented

Molecule: I^125-Asprosin: Recombinant asprosin labeled with iodine-125
- site of accumulation (SPECT, liver photon intensity) [3]: trafficked primarily to the liver

Molecule: PTX: Gαi inhibitor [reference compound]
- effect of pre-treating on asprosin-mediated AgRP neuron activation (firing frequency and resting membrane potential) [1]: no impact

Molecule: [D-Lys3]-GHRP-6 [reference compound]
- effect of pre-treating on asprosin-mediated AgRP neuron activation (firing frequency and resting membrane potential) [1]: no impact

- EC50 for AgRP neuron activation ([1]; firing frequency and membrane potential): nanomolar to subnanomolar range
B1: mammalian-generated asprosin: Human asprosin with C-terminal 6x His tag expressed in Expi293 mammalian cells, glycosylated (protein)
chain: STNETDASNIEDQSETEANVSLASWDVEKTAIFAFNISHVSNKVRILELLPALTTLTNHNRYLIESGNEDGFFKINQKEGISYLHFTKKKPVAGTYSLQISSTPLYKKKELNQLEDKYDKDYLSGELGDNLKMKIQVLLHHHHHHH
- food intake over the next 24-hr [4]: greater food intake
- dose-dependency of AgRP neuron activation (firing frequency, membrane potential) ([1]; 0.01-100 nM, intact slices): dose-dependent activation
- plasma half-life [5]: ~2.42 h
- plasma half-life ([5]; listed as Mammalian asprosin): approximately 145 minutes
